Test results: patent publication US11407719B2, “Anti-inflammatory agents” (Resverlogix Corp., priority 2009, dated 2022)

Tested on: hIL-6 mRNA
Assay: Quantification of hIL-6 mRNA
Format: cell-based, human
Design: key: Active: an active compound is one that causes a ≥20% inhibition in IL-6 mRNA at a concentration less than or equal to 10 μM
Conditions: IL-6 mRNA by real-time PCR; differentiated U937 cells, 1 h pretreatment, lipopolysaccharide stimulation 3 h; concentration ≤10 μM
Method: In this example, […] in tissue culture cells was quantitated to measure the transcriptional inhibition of hIL-6 when treated with a compound of the invention.
A human leukemic monocyte lymphoma cell line (U937) was plated (3.2×10^5 cells per well) in a 96-well plate in 100 μL RPMI-1640, and differentiated for 3 days prior to the addition of the compound of interest. The cells were pretreated for 1 h with the test compound prior to stimulation with lipolysaccharide from Escherichia coli. The cells were incubated at 37° C. for 3 h before the cells were harvested. At time of harvest, the spent media was removed from the cells and the cells were rinsed in 200 μL PBS. Cell lysis solution (70 μL) was added the cells in each well and incubated for 5-10 min at room temperature, to allow for complete cell lysis and detachment. mRNA was then prepared using the “mRNA Catcher PLUS plate” (Invitrogen), according to the protocol supplied. After the last wash, as much wash buffer as possible was aspirated without allowing the wells to dry. Elution buffer (E3, 70 μL) was then added to each well. mRNA was then eluted by incubating the mRNA Catcher PLUS plate with Elution Buffer for 5 min at 68° C. and then immediately placing the plate on ice.
The eluted mRNA isolated was then used in a one-step quantitative real-time PCR reaction, using components of the Ultra Sense Kit together with Applied Biosystems primer-probe mixes. Real-time PCR data was analyzed, normalizing the Ct values for hIL-6 to an internal control, prior to determining the fold induction of each unknown sample, relative to the control.

COc1cc(OC)c2c(=O)[nH]c(-c3ccc(CN4CCC(NC(C)C)CC4)cc3)nc2c1 [2-(4-((4-(Isopropylamino)piperidin-1-yl)methyl)phenyl)-5,7-dimethoxyquinazolin-4(3H)-one]
Inhibition of IL-6 expression: Active

COc1cc(OC)c2c(=O)[nH]c(-c3ccc(N4CCN(C(=O)c5cccnc5)CC4)cc3)nc2c1 [5,7-Dimethoxy-2-(4-(4-nicotinoylpiperazin-1-yl)phenyl)quinazolin-4(3H)-one]
Inhibition of IL-6 expression: Active

COc1cc(OC)c2c(=O)[nH]c(-c3ccc(CN4CCN(C)CC4)cc3)nc2c1 [5,7-dimethoxy-2-(4-((4-methylpiperazin-1-yl)methyl)phenyl)quinazolin-4(3H)-one]
Inhibition of IL-6 expression: Active

COc1cc(OC)c2c(=O)[nH]c(-c3ccc(N4CCCN(C(C)=O)CC4)cc3)nc2c1 [2-(4-(4-Acetyl-1,4-diazepan-1-yl)phenyl)-5,7-dimethoxyquinazolin-4(3H)-one]
Inhibition of IL-6 expression: Active

COc1cc(OC)c2c(=O)[nH]c(-c3ccc(CN4CCC(N(C(C)=O)C(C)C)CC4)cc3)nc2c1 [N-(1-(4-(5,7-Dimethoxy-4-oxo-3,4-dihydroquinazolin-2-yl)benzyl)piperidin-4-yl)-N-isopropylacetamide]
Inhibition of IL-6 expression: Active

COc1cc(OC)c2c(=O)[nH]c(-c3ccc(Nc4ccc(C)cc4)cc3)nc2c1 [5,7-Dimethoxy-2-(4-(p-tolylamino)phenyl)quinazolin-4(3H)-one]
Inhibition of IL-6 expression: Active

COc1cc(OC)c2c(=O)[nH]c(-c3ccc(OC4CCN(C(C)=O)CC4)cc3)nc2c1 [2-(4-(1-Acetylpiperidin-4-yloxy)phenyl)-5,7-dimethoxyquinazolin-4(3H)-one]
Inhibition of IL-6 expression: Active

COc1cc(OC)c2c(=O)[nH]c(-c3ccc(C4CCN(C(C)=O)CC4)cc3)nc2c1 [2-(4-(1-acetylpiperidin-4-yl)phenyl)-5,7-dimethoxyquinazolin-4(3H)-one]
Inhibition of IL-6 expression: Active

COc1cc(OC)c2c(=O)[nH]c(-c3ccc(N4CCN(C(=O)c5ccncc5)CC4)cc3)nc2c1 [2-(4-(4-Isonicotinoylpiperazin-1-yl)phenyl)-5,7-dimethoxyquinazolin-4(3H)-one]
Inhibition of IL-6 expression: Active

COc1cc(OC)c2c(=O)[nH]c(-c3cc(C)c(OCCN4CCOCC4)c(C)c3)cc2c1 [3-(3,5-dimethyl-4-(2-morpholinoethoxy)phenyl)-6,8-dimethoxyisoquinolin-1(2H)-one]
Inhibition of IL-6 expression: Active

COc1cc(OC)c2c(=O)[nH]c(-c3ccc(N4CCN(C(=O)c5cccs5)CC4)cc3)nc2c1 [5,7-Dimethoxy-2-(4-(4-(thiophene-2-carbonyl)piperazin-1-yl)phenyl)quinazolin-4(3H)-one]
Inhibition of IL-6 expression: Active

COc1cc(OC)c2c(=O)[nH]c(-c3ccc(N4C[C@@H](C)N(C(C)C)[C@@H](C)C4)cc3)nc2c1 [2-(4-((3R,5S)-4-Isopropyl-3,5-dimethylpiperazin-1-yl)phenyl)-5,7-dimethoxyquinazolin-4(3H)-one]
Inhibition of IL-6 expression: Active

COc1cc(OC)c2c(=O)[nH]c(-c3ccc4[nH]nc(CO)c4c3)nc2c1 [2-(3-(Hydroxymethyl)-1H-indazol-5-yl)-5,7-dimethoxyquinazolin-4(3H)-one]
Inhibition of IL-6 expression: Active

COc1cc(OC)c2c(=O)[nH]c(-c3ccc4[nH]c(CCO)cc4c3)nc2c1 [2-(2-(2-Hydroxyethyl)-1H-indol-5-yl)-5,7-dimethoxyquinazolin-4(3H)-one]
Inhibition of IL-6 expression: Active

COc1cc(OC)c2c(=O)[nH]c(-c3ccc(N4CCN(C(=O)c5ccccn5)CC4)cc3)nc2c1 [5,7-Dimethoxy-2-(4-(4-picolinoylpiperazin-1-yl)phenyl)quinazolin-4(3H)-one]
Inhibition of IL-6 expression: Active

COc1cc(OC)c2c(=O)[nH]c(-c3ccc(C4CCN(C(=O)OC(C)(C)C)CC4)cc3)nc2c1 [Tert-butyl 4-(4-(5,7-dimethoxy-4-oxo-3,4-dihydroquinazolin-2-yl)phenyl)piperidine-1-carboxylate]
Inhibition of IL-6 expression: Active

COc1cc(OC)c2c(=O)[nH]c(-c3ccc(OC4CCN(C(=O)N(C)C)CC4)cc3)nc2c1 [4-(4-(5,7-Dimethoxy-4-oxo-3,4-dihydroquinazolin-2-yl)phenoxy)-N,N-dimethylpiperidine-1-carboxamide]
Inhibition of IL-6 expression: Active

COc1cc(OC)c2c(=O)[nH]c(-c3ccc(C4CCNCC4)cc3)nc2c1 [5,7-Dimethoxy-2-(4-(piperidin-4-yl)phenyl)quinazolin-4(3H)-one]
Inhibition of IL-6 expression: Active

COc1cc(OC)c2c(=O)[nH]c(-c3ccc(N4CCC(N(C(C)=O)C(C)C)CC4)cc3)nc2c1 [N-(1-(4-(5,7-dimethoxy-4-oxo-3,4-dihydroquinazolin-2-yl)phenyl)piperidin-4-yl)-N-isopropylacetamide]
Inhibition of IL-6 expression: Active

COc1cc(OC)c2c(=O)[nH]c(-c3ccc(CN4CCOCC4)cc3)nc2c1 [5,7-dimethoxy-2-(4-(morpholinomethyl)phenyl)quinazolin-4(3H)-one]
Inhibition of IL-6 expression: Active

COc1cc(OC)c2c(=O)[nH]c(-c3ccc(N4CCC(NC(=O)N(C)C)CC4)cc3)nc2c1 [3-(1-(4-(5,7-Dimethoxy-4-oxo-3,4-dihydroquinazolin-2-yl)phenyl)piperidin-4-yl)-1,1-dimethylurea]
Inhibition of IL-6 expression: Active

COc1cc(OC)c2c(=O)[nH]c(-c3cc(C)c(OCCCN4CCCC4)c(C)c3)nc2c1 [2-(3,5-Dimethyl-4-(3-(pyrrolidin-1-yl)propoxy)phenyl)-5,7-dimethoxyquinazolin-4(3H)-one]
Inhibition of IL-6 expression: Active

COc1cc(OC)c2c(=O)[nH]c(-c3ccc(N4CCN(C=O)CC4)cc3)nc2c1 [4-(4-(5,7-Dimethoxy-4-oxo-3,4-dihydroquinazolin-2-yl)phenyl)piperazine-1-carbaldehyde]
Inhibition of IL-6 expression: Active

COc1cc(OC)c2c(=O)[nH]c(-c3cc(C)c(OCCN4CCN(C)CC4)c(C)c3)cc2c1 [3-(3,5-dimethyl-4-(2-(4-methylpiperazin-1-yl)ethoxy)phenyl)-6,8-dimethoxyisoquinolin-1(2H)-one]
Inhibition of IL-6 expression: Active

COc1cc(OC)c2c(=O)[nH]c(-c3ccc(CN4CCN(C(C)C)CC4)cc3)nc2c1 [2-(44(4-Isopropylpiperazin-1-yl)methyl)phenyl)-5,7-dimethoxyquinazolin-4(3H)-one]
Inhibition of IL-6 expression: Active

COc1cc(OC)c2c(=O)[nH]c(-c3ccc(N4CCNC(C)C4)cc3)nc2c1 (stereo not drawn) [5,7-Dimethoxy-2-(4-(3-methylpiperazin-1-yl)phenyl)quinazolin-4(3H)-one]
Inhibition of IL-6 expression: Active

COc1cc(OC)c2c(=O)[nH]c(-c3ccc(N4C[C@@H](C)N(C(C)=O)[C@@H](C)C4)cc3)nc2n1 [2-(4-((3R,5S)-4-Acetyl-3,5-dimethylpiperazin-1-yl)phenyl)-5,7-dimethoxypyrido[2,3-d]pyrimidin-4(3H)-one]
Inhibition of IL-6 expression: Active
